Source: patent publication US20260021079A1, “NOX INHIBITORS FOR USE IN THE TREATMENT OF ALPORT SYNDROME” (CALLIDITAS THERAPEUTICS SUISSE SA, priority 2022, published 2026)

Tests used:
Format in all cases: in vivo
[1] = test system: homozygous Col4a3 ko/ko mice; test: Albumin levels in urine (Albumin Mouse ELISA) in Col4a3 Alport mouse model; conditions: setanaxib 60 mg/kg daily oral gavage, Ramipril 10 mg/kg via drinking water; for Albumin levels in urine vs vehicle: age 6 weeks (2 weeks of treatment)
Source text: Mice homozygous for the Col4a3 ko/ko targeted mutation are a model for autosomal-recessive Alport syndrome (Cosgrove et al. Kidney Int. 2007, 71(7), p. 615-618). Animals bred on a 129/SvJ background develop glomerulonephritis and die at about 8.5 weeks of age (Jackson Laboratory strain: #002908). Gross et al. Kidney Int. 2003, 63(2), p. 438-446) reported a mean survival of 10 weeks. Since homozygous Col4a3 ko/ko mice reflect key features of Alport syndrome, this mouse model is useful to test potential drug candidates. A number of 40 homozygous Col4a3 ko/ko mice, allocated to 4 groups (vehicle, setanaxib, Ramipril, and setanaxib+Ramipril combination) with n=10 animals each, were used for the study. Starting at an age of 4 weeks, animals were treated with vehicle and/or compound daily per oral gavage for 4 weeks. The reference compound Ramipril was administered via drinking water, prepared on a weekly basis, but changed at the latest after 4 days. Additionally, one wild-type control group (Col4A3+/+) without any treatment was enclosed in the study with n=6 animals. […] Albumin and Creatinine levels were evaluated by ELISA in urine samples of 8 animals per treatment group. Treatment 40 homozygous Col4a3 ko/ko mice, allocated to 4 groups with n=10 animals each, were used for this study. Animals were treated with vehicle or compound daily per oral gavage for 4 weeks starting at an age of 4 weeks. The reference compound Ramipril was administered via drinking water, prepared on a weekly basis, but changed latest after 4 days. Additionally, one wild-type control group without any treatment was enclosed in the study with n=6 animals. The treatment groups are outlined in the table below: […] In case no urine was produced during the fixation process, massage of the abdomen was allowed. Urine was collected in Eppendorf Tubes, spun at 800×g at room temperature for 10 minutes and supernatant was transferred into a fresh tube and frozen at -20° C. until use. Creatinine and Albumin levels in urine supernatants, collected from 8 animals each group […] timepoints, at baseline, 6 and 8 weeks of age (n=96), were analyzed. Albumin levels in urine supernatants, collected from each animal per group at 3 time points (total n=96) were analyzed using an Albumin Mouse ELISA Kit (ab108792; Abcam) according to manufacturer protocol. Briefly, urine samples were centrifuged at 800×g for 10 minutes and diluted into Diluent N. 50 μL of albumin standard or sample was added per well and incubated for 2 hours. After a washing step, 50 μL of biotinylated albumin antibody was added to each well and incubated for 1 hour. […] Albumin levels were determined by reading the absorbance at 450 nm immediately after adding the stop solution.

[2] = test system: homozygous Col4a3 ko/ko mice; test: Albumin/creatinine ratio in urine in Col4a3 Alport mouse model; conditions: Ramipril 10 mg/kg
Source text: Mice homozygous for the Col4a3 ko/ko targeted mutation are a model for autosomal-recessive Alport syndrome (Cosgrove et al. Kidney Int. 2007, 71(7), p. 615-618). Animals bred on a 129/SvJ background develop glomerulonephritis and die at about 8.5 weeks of age (Jackson Laboratory strain: #002908). Gross et al. Kidney Int. 2003, 63(2), p. 438-446) reported a mean survival of 10 weeks. Since homozygous Col4a3 ko/ko mice reflect key features of Alport syndrome, this mouse model is useful to test potential drug candidates. A number of 40 homozygous Col4a3 ko/ko mice, allocated to 4 groups (vehicle, setanaxib, Ramipril, and setanaxib+Ramipril combination) with n=10 animals each, were used for the study. Starting at an age of 4 weeks, animals were treated with vehicle and/or compound daily per oral gavage for 4 weeks. The reference compound Ramipril was administered via drinking water, prepared on a weekly basis, but changed at the latest after 4 days. Additionally, one wild-type control group (Col4A3+/+) without any treatment was enclosed in the study with n=6 animals. […] Albumin and Creatinine levels were evaluated by ELISA in urine samples of 8 animals per treatment group. Treatment 40 homozygous Col4a3 ko/ko mice, allocated to 4 groups with n=10 animals each, were used for this study. Animals were treated with vehicle or compound daily per oral gavage for 4 weeks starting at an age of 4 weeks. The reference compound Ramipril was administered via drinking water, prepared on a weekly basis, but changed latest after 4 days. Additionally, one wild-type control group without any treatment was enclosed in the study with n=6 animals. The treatment groups are outlined in the table below: […] In case no urine was produced during the fixation process, massage of the abdomen was allowed. Urine was collected in Eppendorf Tubes, spun at 800×g at room temperature for 10 minutes and supernatant was transferred into a fresh tube and frozen at -20° C. until use. Creatinine and Albumin levels in urine supernatants, collected from 8 animals each group […] timepoints, at baseline, 6 and 8 weeks of age (n=96), were analyzed. Creatinine levels in urine samples of all animals (n=8 per group, 4 groups, 3 time points, total n=96) were analyzed. For that purpose, an enzymatic assay from Diazyme® (DZ072B) was used. The analysis was performed according to manufacturer protocol with minor modifications introduced for use in 96 well plates and readout in standard plate photometer (Cytation 5, Biotek). Albumin levels in urine supernatants, collected from each animal per group at 3 time points (total n=96) were analyzed using an Albumin Mouse ELISA Kit (ab108792; Abcam) according to manufacturer protocol.

[3] = test system: homozygous Col4a3 ko/ko mice; test: Blood Urea Nitrogen (BUN) colorimetric detection in plasma, Col4a3 Alport mouse model; conditions: end of study (4 weeks of treatment); first experiment
Source text: (§1) Mice homozygous for the Col4a3 ko/ko targeted mutation are a model for autosomal-recessive Alport syndrome (Cosgrove et al. Kidney Int. 2007, 71(7), p. 615-618). Animals bred on a 129/SvJ background develop glomerulonephritis and die at about 8.5 weeks of age (Jackson Laboratory strain: #002908). Gross et al. Kidney Int. 2003, 63(2), p. 438-446) reported a mean survival of 10 weeks. Since homozygous Col4a3 ko/ko mice reflect key features of Alport syndrome, this mouse model is useful to test potential drug candidates. A number of 40 homozygous Col4a3 ko/ko mice, allocated to 4 groups (vehicle, setanaxib, Ramipril, and setanaxib+Ramipril combination) with n=10 animals each, were used for the study. Starting at an age of 4 weeks, animals were treated with vehicle and/or compound daily per oral gavage for 4 weeks. The reference compound Ramipril was administered via drinking water, prepared on a weekly basis, but changed at the latest after 4 days. Additionally, one wild-type control group (Col4A3+/+) without any treatment was enclosed in the study with n=6 animals. At study end the animals were euthanized by i.p. injection of pentobarbital and terminal blood was collected by heart puncture in EDTA coated tubes. […] BUN plasma levels of all animals at the end of the study were analyzed. […]

[4] = test system: homozygous Col4a3 ko/ko mice; test: Quantitative detection of mouse Cystatin C in plasma (ELISA), Col4a3 Alport mouse model; conditions: end of study (4 weeks of treatment); first experiment
Source text: as §1, with “Cystatin C” for “BUN”

[5] = age 8 weeks (4 weeks of treatment), setanaxib 60 mg/kg

Structure (SMILES) | Albumin levels in urine vs vehicle ([1]; both experiments / experiment not specified) | Albumin levels in urine vs control (vehicle) ([1]; age 8 weeks (4 weeks of treatment)) | Albumin to Creatinine ratio in urine vs vehicle ([2]; age 6 weeks, both first and second experiment, setanaxib 60 mg/kg) | Albumin to Creatinine ratio in urine vs vehicle [2, 5] | BUN plasma levels vs vehicle [3] | Cystatin C plasma levels vs vehicle [4] | Albumin levels in urine vs vehicle ([1]; first experiment) | Albumin levels in urine vs vehicle ([1]; second experiment) | Albumin to Creatinine ratio in urine vs vehicle ([2]; age 6 weeks, first experiment, setanaxib 60 mg/kg) | Albumin to Creatinine ratio in urine vs vehicle ([2]; age 6 weeks, second experiment)
CN(C)c1cccc(-c2c3c(=O)n(-c4ccccc4Cl)[nH]c3cc(=O)n2C)c1 [setanaxib, 2-(2-chlorophenyl)-4-[3-(dimethylamino)phenyl]-5-methyl-1H-pyrazolo[4,3-c]pyridine-3,6(2H,5H)-dione] | trend towards increased Albumin levels | decrease in average Albumin levels | trend in both the first and second experiment towards an increase | average decrease | significant decrease | significant decrease | – | – | – | –
CCOC(=O)[C@H](CCc1ccccc1)N[C@@H](C)C(=O)N1[C@H](C(=O)O)C[C@@H]2CCC[C@@H]21 [Ramipril, (2S,3aS,6aS)-1-[(2S)-2-[[(2S)-1-ethoxy-1-oxo-4-phenylbutan-2-yl]amino]propanoyl]-3,3a, 4,5,6,6a-hexahydro-2H-cyclopenta[b]pyrrole-2-carboxylic acid] | – | – | – | significantly decreased | significant decrease | significant decrease | slightly reduced the amount of albumin in the urine | reduced to a greater extent | reduced the Albumin to Creatinine ratio, but without reaching significance | the reduction did reach significance
